Reference: US4925664A, “Spider toxins and methods for their use as blockers of calcium channels and amino acid receptor function” (priority 1986, dated 1990)

system: transmission between the cochlear nerve afferents and the cochlear nucleus neurons; experiment: Blockade of synaptic transmission in chick cochlear nucleus, in vitro chick brain stem preparation (field potential); format: cell-based; conditions: conventional EAA receptor antagonists and agonists
Experimental: The toxin was bath-applied to cochlear nucleus neurons in an in vitro preparation of chick brain stem.
In order to test the effects of the spider venom, late embryos or hatchling chickens were used in all experiments. Brain stems were removed and maintained in vitro using methods known and described in the art, except that the temperature in the recording chamber was held at 32° C. The tissue was superfused in avian Tyrode solution at about 1 ml per minute.
The field potential evoked by direct electrical stimulation of the cochlear nerve was recorded with a 4M potassium acetate electrode. The short latency component of the field potential reflects the compound action […] of cochlear nerve axons. This afferent volley is followed by a negativity representing the postsynaptic response of NM neurons.

Row | SMILES | concentration required to completely suppress transmission
1 | N[C@@H](Cn1oc(=O)[nH]c1=O)C(=O)O [quisqualate] | millimolar concentrations
2 | N[C@H](CCC(=O)NCC(=O)O)C(=O)O [-D-glutamylglycine] | millimolar range
3 | O=C(O)[C@H]1CCCN[C@H]1C(=O)O (relative stereo) [cis-2,3-piperidine dicarboxylic acid] | millimolar range
